Assays:
[1] = Storage stability of the bulk; format: physicochemical; details: should be refrigerated to ensure stability
[2] = cited from earlier work
[3] = system: cerebral infarction; details: focal cerebral ischemia model; Non-Patent References 1 and 2; cited from earlier work
[4] = Hygroscopicity test (time course weight changes under controlled relative humidity at 25° C.); format: physicochemical; design: Time course weight changes: unit not given here; details: for Hygroscopicity: ˜0% to 93% RH, up to 7 days
Procedure: About 1 g each of the compound (I) and the compound (II) of anhydride compound A were weighed accurately in weighing bottles (seven) of known weight, then stored under the following conditions at 25° C., and time course weight changes were measured.
RH herein means relative humidity.

[5] = system: AMPA receptor; details: tautomer, salt, hydrate or solvate; Patent Reference 1; cited from earlier work
[6] = system: kainic acid neurotoxicity; details: tautomer, salt, hydrate or solvate; Patent Reference 1; cited from earlier work
[7] = system: audiogenic seizure; details: DBA/2 mouse; tautomer, salt, hydrate or solvate; Patent Reference 1; cited from earlier work
[8] = ˜0% RH (silica gel), 25° C., Day 1
[9] = ˜0% RH (silica gel), 25° C., Day 2
[10] = ˜0% RH (silica gel), 25° C., Day 4
[11] = ˜0% RH (silica gel), 25° C., Day 7

| SMILES | Stability against humidity [4] | Time course weight changes ([4]; 33% RH, 25° C., Day 1) | Time course weight changes ([4]; 33% RH, 25° C., Day 2) | Time course weight changes ([4]; 33% RH, 25° C., Day 4) | Time course weight changes ([4]; 33% RH, 25° C., Day 7) | Time course weight changes ([4]; 51% RH, 25° C., Day 1) | Time course weight changes ([4]; 51% RH, 25° C., Day 2) | Time course weight changes ([4]; 51% RH, 25° C., Day 4) | Time course weight changes ([4]; 51% RH, 25° C., Day 7) | Time course weight changes ([4]; 63.5% RH, 25° C., Day 1) | Time course weight changes ([4]; 63.5% RH, 25° C., Day 2) | Time course weight changes ([4]; 63.5% RH, 25° C., Day 4) | Time course weight changes ([4]; 63.5% RH, 25° C., Day 7) | Time course weight changes ([4]; 75% RH, 25° C., Day 1) | Time course weight changes ([4]; 75% RH, 25° C., Day 2) | Time course weight changes ([4]; 75% RH, 25° C., Day 4) | Time course weight changes ([4]; 75% RH, 25° C., Day 7) | Time course weight changes ([4]; 84% RH, 25° C., Day 1) | Time course weight changes ([4]; 84% RH, 25° C., Day 2) | Time course weight changes ([4]; 84% RH, 25° C., Day 4) | also measured |
| --- | --- | --- | --- | --- | --- | --- | --- | --- | --- | --- | --- | --- | --- | --- | --- | --- | --- | --- | --- | --- | --- |
| O=C(O)Cn1c(=O)c(=O)[nH]c2cc([N+](=O)[O-])c(-n3ccnc3)cc21 [1 hydrate of the compound A, [7-(1H-imidazol-1-yl)-6-nitro-2,3-dioxo-3,4-dihydroquinoxalin-1(2H)-yl]acetic acid] |  |  |  |  |  |  |  |  |  |  |  |  |  |  |  |  |  |  |  |  | Storage stability (impurities) [1]: may increase impurities depending on storage condition; Water-solubility ([2]; Non-Patent References 1 and 2): high water-solubility; Reducing effect on the volume of cerebral infarction [3]: excellent reducing effect |
| O=C(O)Cn1c(=O)c(=O)[nH]c2cc([N+](=O)[O-])c(-n3ccnc3)cc21 [compound (I), [7-(1H-imidazol-1-yl)-6-nitro-2,3-dioxo-3,4-dihydroquinoxalin-1(2H)-yl]acetic acid] | excellent stability against humidity | 0.09 | 0.06 | 0.10 | 0.08 | 0.03 | 0.04 | 0.10 | 0.09 | 0.03 | 0.06 | 0.10 | 0.11 | 0.04 | 0.07 | 0.13 | 0.10 | 0.05 | 0.09 | 0.11 | Time course weight changes ([4]; 84% RH, 25° C., Day 7): 0.13; Time course weight changes ([4]; 93% RH, 25° C., Day 1): 0.09; Time course weight changes ([4]; 93% RH, 25° C., Day 2): 0.10; Time course weight changes ([4]; 93% RH, 25° C., Day 4): 0.15; Time course weight changes ([4]; 93% RH, 25° C., Day 7): 0.13; Time course weight changes [4, 8]: 0.03; Time course weight changes [4, 9]: −0.01; Time course weight changes [4, 10]: 0.02; Time course weight changes [4, 11]: 0.01; Hygroscopicity ([4]; 25° C.): stable under any relative humidity conditions almost without showing hygroscopicity |
| O=C(O)Cn1c(=O)c(=O)[nH]c2cc([N+](=O)[O-])c(-n3ccnc3)cc21 [compound (II), [7-(1H-imidazol-1-yl)-6-nitro-2,3-dioxo-3,4-dihydroquinoxalin-1(2H)-yl]acetic acid] | unstable against humidity | 5.26 | 5.29 | 5.32 | 5.33 | 5.39 | 5.39 | 5.40 | 5.38 | 5.47 | 5.47 | 5.49 | 5.49 | 5.47 | 5.47 | 5.51 | 5.46 | 5.51 | 5.52 | 5.52 | Time course weight changes ([4]; 84% RH, 25° C., Day 7): 5.51; Time course weight changes ([4]; 93% RH, 25° C., Day 1): 5.52; Time course weight changes ([4]; 93% RH, 25° C., Day 2): 5.49; Time course weight changes ([4]; 93% RH, 25° C., Day 4): 5.54; Time course weight changes ([4]; 93% RH, 25° C., Day 7): 5.51; Absorbed water ([4]; after one day, at least 33% RH or more, 25° C.): 1 mol water per mol compound; Time course weight changes [4, 8]: 0.09; Time course weight changes [4, 9]: 0.08; Time course weight changes [4, 10]: 0.07; Time course weight changes [4, 11]: 0.04; Hygroscopicity ([4]; 25° C.): strong hygroscopicity |
| O=C(O)Cn1c(=O)c(=O)[nH]c2cc([N+](=O)[O-])c(-n3ccnc3)cc21 [compound A, [7-(1H-imidazol-1-yl)-6-nitro-2,3-dioxo-3,4-dihydroquinoxalin-1(2H)-yl]acetic acid] |  |  |  |  |  |  |  |  |  |  |  |  |  |  |  |  |  |  |  |  | Affinity for the AMPA receptor [5]: high affinity; Inhibitory action against kainic acid neurotoxicity [6]: potent activities; Anticonvulsant effect for audiogenic seizure [7]: potent activities; Solubility ([2]; Patent Reference 1): excellent solubility |

Source: US20050130978A1, “Novel crystal of quinoxalinedione derivative anhydride” (priority 2002, published 2005)
